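48-hour exposure; five concentrations; linearly interpolated endpoints. GI50: concentration for 50% inhibition of growth. The concentration for full growth arrest is given as TGI.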
Legend:
Test in all cases: NCI tumour cell line growth inhibition, 48 h
[1] = tested on: SK-OV-3 ovarian
[2] = tested on: K-562 leukemia
[3] = tested on: OVCAR-4 ovarian
[4] = tested on: HCT-116 colon
[5] = tested on: PC-3 prostate
[6] = tested on: COLO 205 colon
[7] = tested on: TK-10 renal
[8] = tested on: HL-60(TB) leukemia
[9] = tested on: CCRF-CEM leukemia
[10] = tested on: A549 NSCLC

SMILES | TGI [1] | TGI [2] | TGI [3] | TGI [4] | TGI [5] | TGI [6] | TGI [7] | TGI [8] | TGI [9] | TGI [10] | GI50 [1] | GI50 [2] | GI50 [3] | GI50 [4] | GI50 [5] | GI50 [6] | GI50 [7] | GI50 [8] | GI50 [9] | GI50 [10]
S=P(C1CCCCC1)(C1CCCCC1)C(c1cccnc1)N1CCCC1 (stereo not drawn) | > 100 µM | 39.2 µM | 55.7 µM | 34.2 µM | 36.9 µM | 37.3 µM | 34.3 µM | 37 µM | 36.3 µM | 35.4 µM |  |  |  |  |  |  |  |  |  | 
O=c1[nH]ccc2nc(N3CCC(O)CC3)nc(Nc3ccc(N4CCOCC4)cc3)c12 | > 100 µM | > 100 µM | > 100 µM | > 100 µM | > 100 µM | 5.05 µM | > 100 µM | > 100 µM | > 100 µM | > 100 µM | 0.59 µM | > 100 µM | > 100 µM | 0.736 µM | > 100 µM | 1.71 µM | > 26.3 µM | > 100 µM | 28.3 µM | 3.9 µM
CC[C@]12C=CCN3CC[C@@]4(c5ccc(OC)cc5N(C)[C@H]4[C@@](O)(C(=O)OC)[C@@H]1OC(=O)CCCC[P+](c1ccccc1)(c1ccccc1)c1ccccc1)[C@@H]32 | 5.9 µM | 11.4 µM | 10.8 µM | 12 µM | 7.77 µM | 0.586 µM | 9.66 µM | 1.15 µM | 6.46 µM | 10.2 µM | 0.725 µM | 0.789 µM | 0.342 µM | 0.777 µM | 0.391 µM | 0.242 µM | 2.79 µM | 0.34 µM | 0.789 µM | 1.86 µM
O=S1(=O)OCc2ccccc21 | > 100 µM | > 100 µM | > 100 µM | > 100 µM | > 100 µM | > 100 µM | > 100 µM | > 100 µM | > 100 µM | > 100 µM |  |  |  |  |  |  |  |  |  | 
OCCNC(=S)Nc1ccc(-c2nc(N3C[C@H]4CC[C@@H](C3)O4)c3cccn3n2)cc1 | 0.104 µM | > 37.6 µM | 0.63 µM | 21.7 µM | 8.13 µM | 1.69 µM | 0.399 µM | > 32.5 µM | > 40.6 µM | 2.75 µM | 0.0162 µM | 0.266 µM | 0.0389 µM | 0.357 µM | 0.0284 µM | 0.0365 µM | 0.0269 µM | 1.22 µM | 0.153 µM | 0.0856 µM
Nc1c(C(=O)c2cccc(C(O)(CO)CO)c2)cnn1-c1ccc(F)cc1 | > 25 µM | > 25 µM | > 25 µM | > 25 µM | > 25 µM | > 25 µM | > 25 µM | > 25 µM | > 25 µM | > 25 µM | > 25 µM | > 25 µM | > 25 µM | > 25 µM | > 25 µM | > 25 µM | > 25 µM | > 25 µM | > 25 µM | > 25 µM
Cc1cc(C)nc(NS(=O)(=O)c2ccc(Nc3nc4nc(NCc5ccccc5)nc(-c5ccc(O)cc5)c4c(=O)[nH]3)cc2)n1 | > 100 µM | > 100 µM | > 100 µM | > 100 µM | > 100 µM | > 100 µM | > 100 µM | 36.2 µM | > 100 µM | > 100 µM | > 100 µM | 4.84 µM | 32.1 µM | 23.6 µM | 19.8 µM | 81.8 µM | 28 µM | 8.41 µM | 54.6 µM | 18.9 µM
Cc1ccccc1NC(=O)N/C(N)=N/c1nc(C)c(C)s1 | > 100 µM | > 100 µM | > 100 µM | > 75.9 µM | > 100 µM |  | > 100 µM | > 100 µM | > 100 µM | > 100 µM | 0.596 µM | 0.0429 µM | 48 µM | 0.321 µM | 0.395 µM | 0.295 µM |  | 0.235 µM | 0.243 µM | 0.545 µM
COc1ccc(C2CC(c3ccc4ccccc4c3)=NN2/C=C2\SC(=S)N(NC(=O)Cc3ccccc3Nc3c(Cl)cccc3Cl)C2=O)cc1 (stereo not drawn) | > 100 µM | > 100 µM | > 48 µM | > 39.6 µM | > 54 µM | > 100 µM | 43.2 µM | 2.89 µM | > 100 µM | > 47.2 µM | 0.847 µM | 0.402 µM | 1.2 µM | 0.482 µM | 0.714 µM | 1.89 µM | 3.57 µM | 0.404 µM | 0.239 µM | 0.507 µM
CCCCCCCC(=O)SCC/C=C/[C@@H]1CC(=O)NCc2cccc(n2)C2=N[C@@](C)(CS2)C(=O)N[C@@H](C(C)C)C(=O)O1 | 0.596 µM | > 33.3 µM | > 33.3 µM | 0.219 µM | > 33.3 µM | 0.337 µM | 0.361 µM | > 33.3 µM | > 33.3 µM | > 33.3 µM | 0.0284 µM | 0.0829 µM | 0.15 µM | 0.0148 µM | 0.0437 µM | 0.0857 µM | 0.0262 µM | 0.126 µM | 0.112 µM | 0.0362 µM
CS(=O)(=O)c1nccc(-c2c(-c3cccc(OCc4ccccc4)c3)nc3sccn23)n1 | > 100 µM | > 100 µM | > 100 µM | > 100 µM | > 26.8 µM | > 100 µM | > 100 µM | 27 µM | > 100 µM | > 100 µM | 23.3 µM | 5.29 µM | 9.97 µM | 7.16 µM | 6.35 µM | 25.3 µM | 53.2 µM | 3.97 µM | > 30.1 µM | > 71.1 µM
C=C(c1ccc(OC)c(/C=C/C(=O)c2cc(OC)c(OC)c(OC)c2)c1)c1cc(OC)c(OC)c(OC)c1 | > 100 µM | 10.7 µM | > 100 µM | 1.9 µM | 5.31 µM | 4.98 µM | 7.9 µM | 13.4 µM | > 100 µM | 4.51 µM | 3.6 µM | 0.922 µM | 3.7 µM | 0.609 µM | 1.3 µM | 2.03 µM | 2.59 µM | 2.03 µM | 0.359 µM | 1.81 µM
COC1=CC(=O)c2c(O)c3c(c(O)c2C1=O)OC1(Oc2c(cc4cc(C)oc(=O)c4c2O)CC1O)C3O (stereo not drawn) | > 100 µM | > 100 µM | 67.5 µM | > 100 µM | > 100 µM | > 100 µM | > 100 µM | > 100 µM | > 100 µM | > 100 µM |  |  |  |  |  |  |  |  |  | 
Nc1nc(=O)c2[nH]cnc2n1O | > 100 µM | > 100 µM | > 100 µM | > 100 µM | > 100 µM | > 100 µM | > 100 µM | > 100 µM | > 100 µM | > 100 µM |  |  |  |  |  |  |  |  |  | 

From PubChem BioAssay (NCI)
